The values below come from US9833454B2, “Difluoromethoxy compound with low bioactivation potential for the reduction of beta-amyloid production” (BRISTOL-MYERS SQUIBB COMPANY, priority 2014, dated 2017).

Bounds are passed on as bounds.

Series [1] concerns the target T1, CYP2C8 (Homo sapiens, UniProt P10632).
T1 sequence (P10632 1-490): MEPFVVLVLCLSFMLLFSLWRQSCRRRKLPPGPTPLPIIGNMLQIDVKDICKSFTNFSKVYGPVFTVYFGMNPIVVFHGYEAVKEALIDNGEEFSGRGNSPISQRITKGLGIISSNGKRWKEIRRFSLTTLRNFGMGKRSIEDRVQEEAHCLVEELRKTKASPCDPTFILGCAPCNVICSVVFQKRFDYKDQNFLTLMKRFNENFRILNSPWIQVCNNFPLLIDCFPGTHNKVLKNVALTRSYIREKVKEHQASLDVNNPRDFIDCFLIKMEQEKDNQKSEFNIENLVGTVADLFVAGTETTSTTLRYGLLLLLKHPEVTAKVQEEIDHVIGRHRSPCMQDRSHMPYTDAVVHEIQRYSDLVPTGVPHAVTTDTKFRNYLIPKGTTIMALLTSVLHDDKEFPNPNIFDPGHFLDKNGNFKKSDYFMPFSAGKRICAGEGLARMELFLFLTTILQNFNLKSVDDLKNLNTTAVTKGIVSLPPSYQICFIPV
As to the kind of experiment: Inhibition of CYP enzymes in human liver microsomes (HLM), CYP2C8. In kind it is in vitro ADME.

Series [2] deals with CYP3A4 (Homo sapiens, UniProt P08684). As to the kind of experiment: HLM CYP3A4 Inactivation Assay. It is filed as in vitro ADME.
Sequence of CYP3A4 (P08684 whole entry): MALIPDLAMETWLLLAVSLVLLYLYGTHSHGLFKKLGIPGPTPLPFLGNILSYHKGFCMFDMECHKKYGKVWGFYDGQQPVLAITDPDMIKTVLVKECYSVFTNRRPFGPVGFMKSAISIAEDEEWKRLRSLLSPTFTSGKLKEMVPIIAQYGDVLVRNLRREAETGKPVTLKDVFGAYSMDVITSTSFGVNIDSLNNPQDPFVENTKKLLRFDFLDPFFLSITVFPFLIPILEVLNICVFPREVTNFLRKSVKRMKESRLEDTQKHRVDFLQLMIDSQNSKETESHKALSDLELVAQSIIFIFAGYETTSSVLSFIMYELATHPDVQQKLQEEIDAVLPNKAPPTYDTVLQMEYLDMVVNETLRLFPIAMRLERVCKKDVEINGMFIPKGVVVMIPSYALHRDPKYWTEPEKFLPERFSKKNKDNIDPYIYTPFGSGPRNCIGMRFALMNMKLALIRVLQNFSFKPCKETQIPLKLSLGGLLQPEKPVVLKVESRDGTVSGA
Experimental: Human liver microsomes pooled from 150 donors (UltraPool 150), [^13C3]1′-hydroxymidazolam and [^2H7]6β-hydroxytestosterone were purchased from BD Gentest (Woburn, Mass.), midazolam and testosterone from Sigma-Aldrich (Saint Louis, Mo.), NADPH from AKRON Biotech (Boca Raton, Fla.).
After a 2-minute incubation at 37° C., the secondary reactions were terminated by the addition of a quench buffer (1:1, v/v), containing an internal standard (stable-isotope-labeled metabolite of the probe substrate).
Reaction buffer (in both primary and secondary reactions) consisted of 100 mM potassium phosphate, pH 7.4, 2 mM MgCl2, and 1 mM NADPH. Quench buffer was a mixture of water, acetonitrile, and formic acid (94:5:1, v/v/v) containing one of the internal standards (0.2 μM [^13C3]1′-hydroxymidazolam or 3 μM [^2H7]6β-hydroxytestosterone).
Quenched reaction mixtures (in 96-well microplates) were initially frozen at −80° C. and then, before LC-MS/MS analysis, the samples were thawed at room temperature and centrifuged at ˜2500×g for 10 minutes to precipitate denatured microsomal protein. Supernatants were used to quantify the amount of a metabolite of the probe substrate in the reaction samples.
The LC-MS/MS system consisted of a Thermo Cohesive ARIA LX-2 (Waltham, Mass.) with Shimadzu LC-20AD XR pumps (Kyoto, Japan) for gradient elution and an AB Sciex API 4500 triple-quadrupole mass spectrometer (Foster City, Calif.), using Turbo V™ source for sample analysis. Samples were injected using dual-arm CTC HTS PAL autosampler from LEAP Technologies (Carrboro, N.C.
To quantify 1′-hydroxymidazolam, the mass spectrometer was operated under positive ionization mode and SRM used for analysis. […] The dwell time was 75 ms for each transition. The declustering potential was 70 V and the collision energy 38 eV. A Kinetex 2.6 μm XB-C18 100A, 50 mm×2.1 mm HPLC column from Phenomenex (Torrance, Calif.) and the injection volume was 10 μL. Mobile phase A was water with 0.2% formic acid, and mobile phase B was acetonitrile with 0.2% formic acid. […] The total cycle time was 90 seconds per injection.
To quantify 6β-hydroxytestosterone, the mass spectrometer was operated under positive ionization mode and SRM used for analysis. […]
The signal intensity of the metabolite in MS/MS analysis was normalized to the signal of internal standard; thus signal intensity was expressed as signal ratio. […] Percent CYP3A4 enzyme activity remaining after preincubation was calculated as: % Activity(Remaining)=(S/T)*100 Where: S=sample signal, T=solvent control signal,
The kinetic parameters (kinact and KI) were then calculated by fitting the kobs values plotted against inhibitor concentrations ([I]) using the non-linear regression model (Michaelis-Menten equation) in the GRAPH PAD PRISM v.5.0 software (San Diego, Calif.):
The target of series [3] is T2, CYP1A2 (Homo sapiens, UniProt P05177).
T2 sequence (P05177 1-516): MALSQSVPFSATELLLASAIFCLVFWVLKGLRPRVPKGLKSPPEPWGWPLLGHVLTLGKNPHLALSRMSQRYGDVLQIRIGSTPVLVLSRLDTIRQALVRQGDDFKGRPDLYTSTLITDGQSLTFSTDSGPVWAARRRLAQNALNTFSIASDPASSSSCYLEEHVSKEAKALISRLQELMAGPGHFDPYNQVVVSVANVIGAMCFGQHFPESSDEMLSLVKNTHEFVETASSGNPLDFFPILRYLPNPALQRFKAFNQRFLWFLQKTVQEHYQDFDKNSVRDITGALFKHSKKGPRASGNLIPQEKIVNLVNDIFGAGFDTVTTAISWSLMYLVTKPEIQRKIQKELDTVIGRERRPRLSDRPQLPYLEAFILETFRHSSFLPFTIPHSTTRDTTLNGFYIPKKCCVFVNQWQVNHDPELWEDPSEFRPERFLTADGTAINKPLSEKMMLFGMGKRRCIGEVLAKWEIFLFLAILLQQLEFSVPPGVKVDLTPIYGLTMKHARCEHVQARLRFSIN
As to the kind of experiment: Inhibition of recombinant CYP enzymes (rCYP), CYP1A2.

The target of series [4] is T1, CYP2C8. As to the kind of experiment: Inhibition of recombinant CYP enzymes (rCYP), CYP2C8. It is filed as in vitro ADME. The conditions noted are these: average of two experiments, read-out: rCYP IC50 2C8.
Series [5] concerns the target dopamine receptor 1 (Homo sapiens, UniProt P21728). As to the kind of experiment: In vitro safety: off-target receptor binding and enzyme assays, D1. The conditions noted are these: in vitro safety panel. The method, then: (§1) A range of off-target receptor binding assays and enzyme assays were carried out using conventional methods available in the art.
Series [6] relates to major human Cytochrome P450 (CYP) enzymes. The series is described as follows: HLM TDI panel, other CYP enzymes. It is filed as in vitro ADME. The settings on record: CYP enzymes other than 3A4 and 2D6.
The target in series [7] is dopamine transporter (Homo sapiens, UniProt Q01959). The series is described as follows: In vitro safety: off-target receptor binding and enzyme assays, DAT. The conditions noted are these: in vitro safety panel. The method, then: as §1
Sequence of dopamine transporter (Q01959 whole entry): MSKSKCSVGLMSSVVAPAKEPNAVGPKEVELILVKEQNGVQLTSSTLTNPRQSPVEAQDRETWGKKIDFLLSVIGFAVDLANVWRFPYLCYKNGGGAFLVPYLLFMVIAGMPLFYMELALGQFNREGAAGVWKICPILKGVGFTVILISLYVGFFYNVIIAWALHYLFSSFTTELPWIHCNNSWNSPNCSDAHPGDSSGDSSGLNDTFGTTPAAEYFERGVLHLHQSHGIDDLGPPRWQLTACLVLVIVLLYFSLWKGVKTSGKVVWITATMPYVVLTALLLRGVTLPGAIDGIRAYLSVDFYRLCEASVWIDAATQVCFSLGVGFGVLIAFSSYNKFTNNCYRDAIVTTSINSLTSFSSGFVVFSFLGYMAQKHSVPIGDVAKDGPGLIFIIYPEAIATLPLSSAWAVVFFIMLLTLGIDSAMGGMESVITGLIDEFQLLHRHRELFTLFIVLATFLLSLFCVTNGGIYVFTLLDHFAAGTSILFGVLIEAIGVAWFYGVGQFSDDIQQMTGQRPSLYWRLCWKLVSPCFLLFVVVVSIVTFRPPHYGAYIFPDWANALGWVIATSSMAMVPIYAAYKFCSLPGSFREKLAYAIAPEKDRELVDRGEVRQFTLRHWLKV
Series [8] has as its target T3, monoamine oxidase A (Homo sapiens, UniProt P21397).
T3 sequence (P21397 1-527): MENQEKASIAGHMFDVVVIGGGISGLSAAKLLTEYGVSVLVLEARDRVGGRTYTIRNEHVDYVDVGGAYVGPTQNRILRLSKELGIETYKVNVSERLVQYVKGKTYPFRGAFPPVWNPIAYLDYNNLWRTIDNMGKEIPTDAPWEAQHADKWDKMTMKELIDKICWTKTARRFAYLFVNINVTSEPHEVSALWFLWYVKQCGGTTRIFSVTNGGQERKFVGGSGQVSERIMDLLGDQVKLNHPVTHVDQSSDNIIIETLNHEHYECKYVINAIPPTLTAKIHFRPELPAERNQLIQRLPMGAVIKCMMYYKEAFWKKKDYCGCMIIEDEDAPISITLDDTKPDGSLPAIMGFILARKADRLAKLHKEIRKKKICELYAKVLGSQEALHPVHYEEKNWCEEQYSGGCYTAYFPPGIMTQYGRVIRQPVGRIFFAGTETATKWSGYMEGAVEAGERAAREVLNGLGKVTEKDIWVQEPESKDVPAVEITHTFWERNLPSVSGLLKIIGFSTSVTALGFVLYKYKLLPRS
The series is described as follows: In vitro safety: off-target receptor binding and enzyme assays, MAO A. The settings on record: in vitro safety panel. In kind it is biochemical. The method, then: as §1

The mark [9] stands for this setting: HLM, all tested concentrations 0.31-20 μM, up to 25 min.

Sequence of dopamine receptor 1 (P21728 whole entry): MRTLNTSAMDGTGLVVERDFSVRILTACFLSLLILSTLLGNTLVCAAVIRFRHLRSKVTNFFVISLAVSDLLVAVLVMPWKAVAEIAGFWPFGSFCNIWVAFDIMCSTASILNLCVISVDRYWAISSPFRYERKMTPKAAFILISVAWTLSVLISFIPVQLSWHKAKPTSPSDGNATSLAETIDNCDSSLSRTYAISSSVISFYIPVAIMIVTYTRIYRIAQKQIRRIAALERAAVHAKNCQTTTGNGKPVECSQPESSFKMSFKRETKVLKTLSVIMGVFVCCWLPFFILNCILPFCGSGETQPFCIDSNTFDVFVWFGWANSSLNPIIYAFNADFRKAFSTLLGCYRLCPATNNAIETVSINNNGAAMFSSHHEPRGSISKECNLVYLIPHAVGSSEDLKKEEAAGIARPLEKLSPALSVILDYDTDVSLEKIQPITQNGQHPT

Turning to `CNc1nc(Nc2ccc(-n3cnc(C)n3)c(OC(F)F)c2)nc2c1C(C)(C)CC2c1ccc(F)cc1` (single isomer, unassigned) [Enantiomer 1, N2-(3-(difluoromethoxy)-4-(3-methyl-1H-1,2,4-triazol-1-yl)phenyl)-7-(4-fluorophenyl)-N4,5,5-trimethyl-6,7-dihydro-5H-cyclopenta[d]pyrimidine-2,4-diamine], the IC50 in series [1] (HLM, 0 min preincubation, read-out: IC50-0 min 2C8) was 4.2 µM; in series [1] (IC50-30 min 2C8, HLM, 30 min preincubation with NADPH), 2.2 µM; in series [3], more than 20 µM; in series [4] it was 0.96 µM; in series [5] it was 8 to 10 µM; in series [7], 8 to 10 µM. The same compound gave a 50% inhibitory concentration (IC50) in series [8] of 8 to 10 µM. Also, in series [1] (HLM, IC50 shift 0 vs 30 min preincubation (TDI ratio)), the “IC50 Ratio 2C8” value is listed as 1.9. In series [2] (HLM CYP3A4 inactivation), the “KI; Kinact” value is listed as “Inactivation rates below the limit of reliable”. Moreover, the apparent rates of inactivation (kobs) with midazolam in series [2] (setting [9]) is less than 0.003 min⁻¹. For the same compound, the apparent rates of inactivation (kobs) with testosterone in series [2] (setting [9]) was less than 0.006 min⁻¹. In addition, the “mechanism-based inhibition of CYP3A4” value in series [2] (HLM, midazolam and testosterone probes) was “not a mechanism-based inhibitor of CYP3A4”. Also, the “HLM TDI panel TDI ratio, others” value in series [6] was less than 2.
